Assay results taken from patent US20120157439A1, “RAF INHIBITOR COMPOUNDS AND METHODS OF USE THEREOF” (GENENTECH, INC., priority 2009, published 2012).
Like-named read-outs stand apart in the source and are kept apart here.

Biological target: T1, V600E full-length B-Raf (Homo sapiens, UniProt P15056, V600E)
T1 construct: 1 μM FSBA-MEK and 20 nM V600E full-length B-Raf; made in house; host or cells: sf9 insect cells (baculovirus)
Assay: B-Raf IC50 Assay (B-RAF V600E inhibition assay, Example A)
Type: biochemical
Source text: Determining the activity of Raf in the sample is possible by a number of direct and indirect detection methods (US 2004/0082014). Activity of human recombinant B-Raf protein may be assessed in vitro by assay of the incorporation of radio labeled phosphate to recombinant MAP kinase (MEK), a known physiologic substrate of B-Raf, according to US 2004/0127496 and WO 03/022840. The activity/inhibition of V600E full-length B-Raf was estimated by measuring the incorporation of radio labeled phosphate from [γ-33P]ATP into FSBA-modified wild-type MEK (see Example A).
Activity of human recombinant B-Raf protein may be assessed in vitro by assay of the incorporation of radio labeled phosphate to recombinant MAP kinase (MEK), a known physiologic substrate of B-Raf, according to U.S. Patent Appl. Publication No. 2004/0127496 and WO 03/022840. Catalytically active human recombinant B-Raf protein is obtained by purification from sf9 insect cells infected with a human B-Raf recombinant baculovirus expression vector.
The activity/inhibition of V600E full-length B-Raf was estimated by measuring the incorporation of radio labeled phosphate from [γ-33P]ATP into FSBA-modified wild-type MEK. The […] assay mixtures contained 25 mM Na Pipes, pH 7.2, 100 mM KCl, 10 mM MgCl2, 5 mM β-glycerophosphate, 100 μM Na Vanadate, 4 μM ATP, 500 nCi [γ-33P]ATP, 1 μM FSBA-MEK and 20 nM V600E full-length B-Raf. Incubations were carried out at 22° C. in a Costar 3365 plate (Corning). Prior to the assay, the B-Raf and FSBA-MEK were preincubated together in assay buffer at 1.5× (20 μL of 30 nM and 1.5 μM, respectively) for 15 minutes, and the assay was initiated by the addition of 10 μL of […]. Following the 60-minute incubation, the assay mixtures were quenched by the addition of 100 μL of 25% TCA, the plate was mixed on a rotary shaker for 1 minute, and the product was captured on a Perkin-Elmer GF/B filter plate using a Tomtec Mach III Harvester. After sealing the bottom of the plate, 35 μL of Bio-Safe II (Research Products International) scintillation cocktail were added to each well and the plate was top-sealed and counted in a Topcount NXT (Packard).

[1] = B-Raf V600E assay of Example A: less than 100 nM, read-out: IC50
[2] = B-Raf V600E assay of Example A: less than about 1 μM, read-out: IC50
[3] = incorporation of radio labeled phosphate from [γ-33P]ATP into FSBA-modified wild-type MEK, 4 μM ATP, 20 nM V600E full-length B-Raf, 60-minute incubation, 22° C., read-out: BRAF V600E IC50

T1 sequence (P15056 whole entry V600E): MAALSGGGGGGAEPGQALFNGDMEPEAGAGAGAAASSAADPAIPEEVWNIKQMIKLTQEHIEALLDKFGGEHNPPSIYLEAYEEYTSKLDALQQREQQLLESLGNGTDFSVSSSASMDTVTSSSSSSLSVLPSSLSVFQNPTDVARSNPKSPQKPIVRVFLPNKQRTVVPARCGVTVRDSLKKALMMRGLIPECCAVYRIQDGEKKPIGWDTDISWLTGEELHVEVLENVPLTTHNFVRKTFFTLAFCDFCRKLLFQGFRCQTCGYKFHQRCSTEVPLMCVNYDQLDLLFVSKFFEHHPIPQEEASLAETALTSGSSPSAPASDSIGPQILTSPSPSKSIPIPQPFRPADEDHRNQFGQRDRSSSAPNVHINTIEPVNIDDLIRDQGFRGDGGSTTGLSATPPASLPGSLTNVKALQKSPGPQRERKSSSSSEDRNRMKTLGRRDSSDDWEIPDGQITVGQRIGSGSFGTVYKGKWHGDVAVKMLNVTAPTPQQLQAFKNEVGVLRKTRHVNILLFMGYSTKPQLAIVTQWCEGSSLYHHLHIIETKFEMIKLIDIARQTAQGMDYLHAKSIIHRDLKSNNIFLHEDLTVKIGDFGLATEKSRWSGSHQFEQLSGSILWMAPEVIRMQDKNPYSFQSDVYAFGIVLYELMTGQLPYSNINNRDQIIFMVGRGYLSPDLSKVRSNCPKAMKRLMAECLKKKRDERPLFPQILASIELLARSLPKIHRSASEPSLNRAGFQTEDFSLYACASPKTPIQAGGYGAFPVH

Compound	IC50 [1]	IC50 [2]	IC50 [3]
CCCS(=O)(=O)Nc1cccc(NC(=O)c2csc3c(N)ncnc23)c1Cl [Example 25, 4-Amino-thieno[3,2-d]pyrimidine-7-carboxylic acid[2-chloro-3-(propane-1-sulfonylamino)-phenyl]-amide]	< 100 nM	< 1000 nM	7.2 nM
CCCS(=O)(=O)Nc1cccc(NC(=O)c2csc3c(N)ncnc23)c1F [Example 26, 4-Amino-thieno[3,2-d]pyrimidine-7-carboxylic acid[2-fluoro-3-(propane-1-sulfonylamino)-phenyl]-amide]	< 100 nM	< 1000 nM	20 nM
CCCS(=O)(=O)Nc1ccc(F)c(NC(=O)c2csc3c(N)ncnc23)c1 [Example 27, 4-Amino-thieno[3,2-d]pyrimidine-7-carboxylic acid[2-fluoro-5-(propane-1-sulfonylamino)-phenyl]-amide]	–	< 1000 nM	125 nM
Nc1ncnc2c(C(=O)Nc3c(F)ccc(NS(=O)(=O)N4CCCC4)c3F)csc12 [Example 28, 4-Amino-thieno[3,2-d]pyrimidine-7-carboxylic acid[2,6-difluoro-3-(pyrrolidine-1-sulfonylamino)-phenyl]-amide]	< 100 nM	< 1000 nM	11.6 nM
CN(C)S(=O)(=O)Nc1ccc(F)c(NC(=O)c2csc3c(N)ncnc23)c1F [Example 29, 4-Amino-N-(3-(N,N-dimethylsulfamoylamino)-2,6-difluorophenyl)thieno[3,2-d]pyrimidine-7-carboxamide]	< 100 nM	< 1000 nM	88 nM
CCCS(=O)(=O)Nc1ccc(F)c(NC(=O)c2nsc3c(N)ncnc23)c1F [Example 30, 7-Amino-isothiazolo[4,5-d]pyrimidine-3-carboxylic acid [2,6-difluoro-3-(propane-1-sulfonylamino)-phenyl]-amide]	< 100 nM	< 1000 nM	1.2 nM
Nc1ncnc2c(C(=O)Nc3c(F)ccc(NS(=O)(=O)CCCF)c3F)nsc12 [Example 31, 7-Amino-isothiazolo[4,5-d]pyrimidine-3-carboxylic acid [2,6-difluoro-3-(3-fluoro-propane-1-sulfonylamino)-phenyl]-amide]	< 100 nM	< 1000 nM	0.82 nM
Nc1ncnc2c(C(=O)Nc3c(Cl)ccc(NS(=O)(=O)CCCF)c3F)nsc12 [Example 32, 7-Amino-isothiazolo[4,5-d]pyrimidine-3-carboxylic acid [6-chloro-2-fluoro-3-(3-fluoro-propane-1-sulfonylamino)-phenyl]-amide]	< 100 nM	< 1000 nM	0.18 nM
CCCS(=O)(=O)Nc1cccc(NC(=O)c2nsc3c(N)ncnc23)c1C#N [Example 33, 7-Amino-isothiazolo[4,5-d]pyrimidine-3-carboxylic acid [2-cyano-3-(propane-1-sulfonylamino)-phenyl]-amide]	< 100 nM	< 1000 nM	0.38 nM
CCCS(=O)(=O)Nc1ccc(F)c(NC(=O)c2snc3c(N)ncnc23)c1F [Example 34, 7-Amino-isothiazolo[4,3-d]pyrimidine-3-carboxylic acid [2,6-difluoro-3-(propane-1-sulfonylamino)-phenyl]-amide]	< 100 nM	< 1000 nM	5 nM
CCCS(=O)(=O)Nc1ccc(F)c(NC(=O)c2snc3c(NCC)ncnc23)c1F [Example 35, 7-Ethylamino-isothiazolo[4,3-d]pyrimidine-3-carboxylic acid [2,6-difluoro-3-(propane-1-sulfonylamino)-phenyl]-amide]	–	< 1000 nM	105 nM
CCCS(=O)(=O)Nc1ccc(F)c(NC(=O)c2snc3c(NC4CC4)ncnc23)c1F [Example 36, 7-(Cyclopropylamino)-N-(2,6-difluoro-3-(propylsulfonamido)phenyl)isothiazolo[4,3-d]pyrimidine-3-carboxamide]	–	< 1000 nM	194 nM
CCCS(=O)(=O)Nc1ccc(F)c(NC(=O)c2csc3c(NOC)ncnc23)c1Cl [Example 37, 4-Methoxyamino-thieno[3,2-d]pyrimidine-7-carboxylic acid [2-chloro-6-fluoro-3-(propane-1-sulfonylamino)-phenyl]-amide]	< 100 nM	< 1000 nM	9.2 nM
CCCS(=O)(=O)Nc1ccc(F)c(NC(=O)c2csc3c(C)ncnc23)c1Cl [Example 38, 4-Methyl-thieno[3,2-d]pyrimidine-7-carboxylic acid [2-chloro-6-fluoro-3-(propane-1-sulfonylamino)-phenyl]-amide]	< 100 nM	< 1000 nM	46.5 nM
Cc1ncnc2c(C(=O)Nc3c(Cl)ccc(NS(=O)(=O)CCCF)c3Cl)csc12 [Example 39, 4-Methyl-thieno[3,2-d]pyrimidine-7-carboxylic acid [2,6-dichloro-3-(3-fluoro-propane-1-sulfonylamino)-phenyl]-amide]	< 100 nM	< 1000 nM	1.11 nM
CCCS(=O)(=O)Nc1ccc(F)c(NC(=O)c2csc3c(C)ncnc23)c1F [Example 40, 4-Methyl-thieno[3,2-d]pyrimidine-7-carboxylic acid [2,6-difluoro-3-(propane-1-sulfonylamino)-phenyl]-amide]	< 100 nM	< 1000 nM	85.5 nM
CCCS(=O)(=O)Nc1ccc(F)c(NC(=O)c2csc3c(CC)ncnc23)c1F [Example 41, 4-Ethyl-thieno[3,2-d]pyrimidine-7-carboxylic acid [2,6-difluoro-3-(propane-1-sulfonylamino)-phenyl]-amide]	–	< 1000 nM	112 nM
CCCS(=O)(=O)Nc1ccc(F)c(NC(=O)c2csc3c(C(F)F)ncnc23)c1F [Example 42, 4-Difluoromethyl-thieno[3,2-d]pyrimidine-7-carboxylic acid [2,6-difluoro-3-(propane-1-sulfonylamino)-phenyl]-amide]	< 100 nM	< 1000 nM	26 nM
CCCS(=O)(=O)Nc1ccc(F)c(NC(=O)c2csc3c(NC4CC4)ncnc23)c1Cl [Example 43, 4-Cyclopropylamino-thieno[3,2-d]pyrimidine-7-carboxylic acid [2-chloro-6-fluoro-3-(propane-1-sulfonylamino)-phenyl]-amide]	< 100 nM	< 1000 nM	1.9 nM
CCCS(=O)(=O)Nc1ccc(F)c(NC(=O)c2csc3c(NCC)ncnc23)c1Cl [Example 44, 4-Ethylamino-thieno[3,2-d]pyrimidine-7-carboxylic acid [2-chloro-6-fluoro-3-(propane-1-sulfonylamino)-phenyl]-amide]	< 100 nM	< 1000 nM	8.7 nM
CCCNc1ncnc2c(C(=O)Nc3c(F)ccc(NS(=O)(=O)CCC)c3Cl)csc12 [Example 45, 4-Propylamino-thieno[3,2-d]pyrimidine-7-carboxylic acid [2-chloro-6-fluoro-3-(propane-1-sulfonylamino)-phenyl]-amide]	< 100 nM	< 1000 nM	4.1 nM
CCCS(=O)(=O)Nc1ccc(F)c(NC(=O)c2csc3c(NC)ncnc23)c1F [Example 46, 4-Methylamino-thieno[3,2-d]pyrimidine-7-carboxylic acid [2,6-difluoro-3-(propane-1-sulfonylamino)-phenyl]-amide]	< 100 nM	< 1000 nM	49.6 nM
CCCS(=O)(=O)Nc1ccc(F)c(NC(=O)c2csc3c(NC4CC4)ncnc23)c1F [Example 47]	< 100 nM	< 1000 nM	4.7 nM
CCCS(=O)(=O)Nc1ccc(F)c(NC(=O)c2csc3c(NCC)ncnc23)c1F [Example 48, 4-Ethylamino-thieno[3,2-d] pyrimidine-7-carboxylic acid [2,6-difluoro-3-(propane-1-sulfonylamino)-phenyl]-amide]	< 100 nM	< 1000 nM	11.4 nM
CCCNc1ncnc2c(C(=O)Nc3c(F)ccc(NS(=O)(=O)CCC)c3F)csc12 [Example 49, 4-Propylamino-thieno[3,2-d] pyrimidine-7-carboxylic acid [2,6-difluoro-3-(propane-1-sulfonylamino)-phenyl]-amide]	< 100 nM	< 1000 nM	10.9 nM
